Results reported in publication PMC3491360 (ACS medicinal chemistry letters, 2012).
Entries after “also recorded” stand apart in the source; their conditions may differ.

Assays:
hA3AR [1] = molecular target: T1, hA3AR (Homo sapiens, UniProt P0DMS8); format: cell-based; conditions: in words, from cyclic AMP assay at 10 µM
T1 sequence (P0DMS8 1-318): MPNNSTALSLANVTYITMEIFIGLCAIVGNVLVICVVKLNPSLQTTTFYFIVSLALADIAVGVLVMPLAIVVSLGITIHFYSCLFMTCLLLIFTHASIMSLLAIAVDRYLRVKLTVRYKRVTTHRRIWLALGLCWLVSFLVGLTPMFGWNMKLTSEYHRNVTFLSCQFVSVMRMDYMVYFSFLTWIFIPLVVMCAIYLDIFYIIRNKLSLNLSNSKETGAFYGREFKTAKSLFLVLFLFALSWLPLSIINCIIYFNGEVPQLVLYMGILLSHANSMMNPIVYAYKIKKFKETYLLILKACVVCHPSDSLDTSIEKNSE

hA3AR [2] = molecular target: T1, hA3AR; conditions: read-out: Affinity (Ki) hA3; CHO cell membranes; ref Melman et al.[19]; cited from earlier work
hA3AR [3] = molecular target: T1, hA3AR; conditions: at 10 µM, relative to 10 µM NECA (=100%); ref Melman et al.[19]; cited from earlier work
hA1AR = molecular target: T2, hA1AR (Homo sapiens, UniProt P30542); conditions: read-out: Affinity (Ki) hA1; CHO cell membranes; ref Melman et al.[19]; cited from earlier work
T2 sequence (P30542 1-326): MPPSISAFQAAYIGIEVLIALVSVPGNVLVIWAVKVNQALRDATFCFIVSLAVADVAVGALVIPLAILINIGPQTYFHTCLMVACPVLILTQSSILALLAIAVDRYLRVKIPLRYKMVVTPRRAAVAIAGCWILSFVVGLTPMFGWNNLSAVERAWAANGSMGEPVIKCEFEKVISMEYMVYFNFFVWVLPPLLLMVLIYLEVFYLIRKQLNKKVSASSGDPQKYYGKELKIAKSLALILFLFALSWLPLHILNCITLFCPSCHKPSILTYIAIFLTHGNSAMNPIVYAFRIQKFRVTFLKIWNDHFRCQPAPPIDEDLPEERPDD

hA2AAR = hA2AAR (Homo sapiens, UniProt P29274); conditions: read-out: Affinity (Ki) hA2A; HEK293 cell membranes; ref Melman et al.[19]; cited from earlier work
Chain of hA2AAR (P29274 whole entry): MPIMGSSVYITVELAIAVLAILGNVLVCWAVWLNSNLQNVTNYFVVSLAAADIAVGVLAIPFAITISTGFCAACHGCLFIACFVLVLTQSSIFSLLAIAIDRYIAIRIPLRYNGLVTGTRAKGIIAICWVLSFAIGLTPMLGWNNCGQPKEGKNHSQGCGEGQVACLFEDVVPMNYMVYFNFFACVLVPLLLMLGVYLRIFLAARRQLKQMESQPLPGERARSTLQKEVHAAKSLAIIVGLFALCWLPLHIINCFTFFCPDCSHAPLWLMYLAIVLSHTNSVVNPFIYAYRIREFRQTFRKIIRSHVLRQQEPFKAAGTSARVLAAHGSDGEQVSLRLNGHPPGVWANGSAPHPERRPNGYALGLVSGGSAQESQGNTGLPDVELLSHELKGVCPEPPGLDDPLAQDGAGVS

**Q.** For `O[C@@H]1[C@H](O)[C@@H]2C[C@@H]2[C@H]1n1cnc2c(NCc3cccc(Cl)c3)nc(C#Cc3ccccc3Cl)nc21` [Compound 12], which “functional character at the hA3AR” value (hA3AR [1]) is on record?
**A.** Its value is “low-efficacy partial agonists”.

**Q.** With `O[C@@H]1[C@H](O)[C@@H]2C[C@@H]2[C@H]1n1cnc2c(NCCc3ccccc3)nc(C#Cc3ccccc3)nc21` [Compound 15] as the molecule, how does the “functional character at the hA3AR” value (hA3AR [1]) read?
**A.** The value was “selective antagonist; also recorded: antagonists”.

**Q.** What does the source list for `O[C@@H]1[C@H](O)[C@@H]2C[C@@H]2[C@H]1n1cnc2c(NCc3cccc(I)c3)nc(Cl)nc21` [Compound 2a]?
**A.** Ki (hA3AR [2]): 0.00144 µM; %Efficacy hA3 (hA3AR [3]): 1.0±3.2%

**Q.** With `CCNc1nc(C#Cc2ccccc2Cl)nc2c1ncn2[C@H]1[C@H](O)[C@H](O)[C@@H]2C[C@@H]21` [Compound 9] as the molecule, how does the “functional character at the hA3AR” value (hA3AR [1]) read?
**A.** The value was “antagonists”.

**Q.** Which “functional character at the hA3AR” value (hA3AR [1]) does the source give for `CONc1nc(C#Cc2ccccc2)nc2c1ncn2[C@H]1[C@H](O)[C@H](O)[C@@H]2C[C@@H]21` [Compound 6] here?
**A.** The value was “low-efficacy partial agonists”.

**Q.** Which “functional character at the hA3AR” value (hA3AR [1]) does the source give for `O[C@@H]1[C@H](O)[C@@H]2C[C@@H]2[C@H]1n1cnc2c(NCCc3ccccc3)nc(C#Cc3ccccc3Cl)nc21` [Compound 16] here?
**A.** The value was “low-efficacy partial agonists”.

**Q.** For `CCNc1nc(C#Cc2ccccc2)nc2c1ncn2[C@H]1[C@H](O)[C@H](O)[C@@H]2C[C@@H]21` [Compound 8], which “functional character at the hA3AR” value (hA3AR [1]) is on record?
**A.** The value was “antagonists”.

**Q.** With `CNc1nc(C#Cc2ccccc2Cl)nc2c1ncn2[C@H]1[C@H](O)[C@H](O)[C@@H]2C[C@@H]21` [Compound 5] as the molecule, how does the “functional character at the hA3AR” value (hA3AR [1]) read?
**A.** Its value is “antagonists”.

**Q.** For `OC1C(O)C(n2cnc3c(NCc4cccc(Cl)c4)nc(Cl)nc32)C2CC12` (stereo not shown) [Compound 2b], which Ki (hA1AR) is on record?
**A.** Its Ki is 3.07 µM.

**Q.** And the Ki (hA2AAR)?
**A.** Its Ki is 4.51 µM.

**Q.** And the “%Efficacy hA3” value (hA3AR [3])?
**A.** The value was 2.9±3.7%.

**Q.** For `CNC(=O)[C@@]12C[C@@H]1[C@@H](n1cnc3c(NCc4cccc(Cl)c4)nc(Cl)nc31)[C@H](O)[C@@H]2O` [Compound 1], which Ki (hA2AAR) is on record?
**A.** Its Ki is 2.3 ± 0.1 µM.
